Data from patent publication US5707976A, “Substituted propane-2-OL derivatives” (Richter Gedeon Vegyeszeti Gyar Rt., priority 1993, dated 1998).
Values after ≈ are worked out from the molar mass of the structure shown. Where two headings read alike, the source gives them in different places.

Experiments:
[1] = system: Candida albicans; test: Densitometric measurement of the propagation of yeast fungi (BIOSCREEN C), minimal inhibitory concentration; type: cell-based; conditions: for MIC: Candida albicans
Protocol: Densitometric measurement of the propagation of yeast fungi
A microbiological analyzer called BIOSCREEN C (LAB-SYSTEMS, Helsinki, Finland) was used to the measurements. From the test compounds first a stock solution of a concentration of 50 mg/ml, then in 15 steps a bisecting dilution series was prepared with dimethyl sulfoxide. From every dilution step 10 μl each was introduced into the cells of the analysator. Then 390 μl of an aqueous nutrient solution was piperred into the cells. In the mixtures obtained the cells of the yeasts, e.g. Candida albicans, cans, were suspended in such an amount that the optical density of the suspension obtained be about 0.1. Young cultures, shaken at 30° C. for about 12 hours, were used in the preparation of the suspensions. The composition of the aqueous nutrient solution was as follows: 1% by weight of glucose, 0.5% by weight of yeast extract (a product of the firm OXOID Ltd, Great Britain, under the catalogue No. L21) and 0.5% by weight of nutrient broth (a product of the firm OXOID Ltd, Great Britain, under the catalogue No. CM 1/2). The concentration of the compounds to be tested in the cells corresponded to 1250, 625, 312, 156, 78, 39, 19, 9, 4, 2, 1, 0.6, 0.3, 0.15 and 0.07 μg/ml, resp. The densitometric measurement of the cultures was carried out during an incubation at 37° C. for 30 hours. The change in the turbidity of the culture, which can be followed through optical measurement, is proportional to the propagation of the yeast fungi.
As the minimal inhibitory concentration (MIC) of this test that minimal concentration of the tested compound was determined which was able to prevent totally the propagation of the fungus.

[2] = system: other Candida species and other pathogenic fungi; test: in vitro tests, full inhibition of other Candida species and other pathogenic fungi; type: cell-based; conditions: read-out: dose of full inhibition
From the text: Mainly this resistant species causes the disease called "candidiasis" which is quite wide-spread and very difficult to influence.

[3] = 30 h, read-out: MIC values of the individual tests

Structure (SMILES): C[Si](C)(C)OC(Cn1cncn1)(Cn1cncn1)c1ccc(F)cc1F [Example 1, 2-(2,4-Difluorophenyl)-1,3-bis(1,2,4-triazol-1-yl)-2-(trimethylsilyloxy)propane]
- MIC [1, 3]: 150 µg/mL (≈ 396 µM)
- effectiveness against Candida albicans compared with the active ingredient of fluconazole ([1]; factor missing in the printed text): times more effective

Structure (SMILES): C[Si](C)(C)OC(Cn1ccnc1)(Cn1cncn1)c1ccc(F)cc1F (stereo not shown) [Example 3, 1-(Imidazol-1-yl)-2-(2,4-difluorophenyl)-3-(1,2,4-triazol-1-yl)-2-(trimethylsilyloxy) propane]
- MIC [1, 3]: 150 µg/mL (≈ 397 µM)

Structure (SMILES): C[Si](C)(C)OC(CCl)(Cn1cncn1)c1ccc(F)cc1F (stereo not shown) [Example 5, 1-Chloro-2-(2,4-difluorophenyl)-3-(1,2,4-triazol-1-yl)-2-(trimethylsilyloxy) propane]
- MIC [1, 3]: 9 µg/mL (≈ 26 µM)

Structure (SMILES): CC(Cn1cncn1)(O[Si](C)(C)C)c1ccc(F)cc1F (stereo not shown) [Example 6, 2-(2,4-Difluorophenyl)-3-(1,2,4-triazol-1-yl)-2-(trimethylsilyloxy)propane]
- MIC [1, 3]: 150 µg/mL (≈ 482 µM)

Structure (SMILES): C[Si](C)(C)OC(CCl)(Cn1ccnc1)c1ccc(F)cc1F (stereo not shown) [Example 8, 1-Chloro-2-(2,4-difluorophenyl)-3-(imidazol-1-yl)-2-(trimethylsilyloxy)propane]
- MIC [1, 3]: 19 µg/mL (≈ 55.1 µM)

Structure (SMILES): OC(Cn1cncn1)(Cn1cncn1)c1ccc(F)cc1F [fluconazole, 2-(2,4-difluorophenyl)-1,3-bis(1,2,4-triazol-1-yl)propane-2-ol, reference compound]
- MIC [2]: 0.1 to 10 µg/mL (≈ 0.327 to 32.7 µM)
- effect against Candida albicans (in words) [1]: relatively weak effect
- MIC [1, 3]: 2500 µg/mL (≈ 8160 µM)
- MIC ([1]; in vitro, read-out: dose of full inhibition): 2500 µg/mL (≈ 8160 µM)
